Experiments:
[1] = target: T1, Alpha-1A adrenergic receptor (Homo sapiens, UniProt P35348)
T1 sequence (P35348 whole entry): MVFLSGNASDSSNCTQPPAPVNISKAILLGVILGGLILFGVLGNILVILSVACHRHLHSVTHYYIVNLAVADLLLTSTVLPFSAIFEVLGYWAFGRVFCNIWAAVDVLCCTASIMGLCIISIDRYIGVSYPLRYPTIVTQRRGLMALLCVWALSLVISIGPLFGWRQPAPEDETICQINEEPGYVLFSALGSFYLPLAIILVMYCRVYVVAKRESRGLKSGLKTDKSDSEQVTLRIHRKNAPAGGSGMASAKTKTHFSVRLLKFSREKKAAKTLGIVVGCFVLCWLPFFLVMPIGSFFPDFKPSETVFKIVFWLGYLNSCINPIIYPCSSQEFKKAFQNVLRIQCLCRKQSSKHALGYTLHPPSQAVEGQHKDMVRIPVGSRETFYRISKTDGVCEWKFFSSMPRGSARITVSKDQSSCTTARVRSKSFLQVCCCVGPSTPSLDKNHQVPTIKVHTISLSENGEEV

[2] = target: Sodium-dependent serotonin transporter (Homo sapiens, UniProt P31645)
Sequence of Sodium-dependent serotonin transporter (P31645 whole entry): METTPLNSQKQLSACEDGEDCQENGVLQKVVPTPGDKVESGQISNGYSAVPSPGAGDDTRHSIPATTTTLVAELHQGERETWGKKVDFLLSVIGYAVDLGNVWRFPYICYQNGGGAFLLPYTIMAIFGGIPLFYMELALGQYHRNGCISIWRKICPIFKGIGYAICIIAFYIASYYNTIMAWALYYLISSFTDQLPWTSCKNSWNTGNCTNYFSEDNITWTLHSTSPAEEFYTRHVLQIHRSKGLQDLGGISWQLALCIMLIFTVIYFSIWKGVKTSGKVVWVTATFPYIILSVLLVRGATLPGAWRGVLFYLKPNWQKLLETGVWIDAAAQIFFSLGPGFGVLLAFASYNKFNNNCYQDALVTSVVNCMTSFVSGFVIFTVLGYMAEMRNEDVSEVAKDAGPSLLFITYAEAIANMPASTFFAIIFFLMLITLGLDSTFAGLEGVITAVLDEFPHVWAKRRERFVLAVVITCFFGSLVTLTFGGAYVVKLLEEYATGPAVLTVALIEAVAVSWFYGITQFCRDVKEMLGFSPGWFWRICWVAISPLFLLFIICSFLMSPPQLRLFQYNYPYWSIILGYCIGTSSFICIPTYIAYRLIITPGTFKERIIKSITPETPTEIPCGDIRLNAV

[3] = target: Kappa-type opioid receptor (Homo sapiens, UniProt P41145)
Sequence of Kappa-type opioid receptor (P41145 whole entry): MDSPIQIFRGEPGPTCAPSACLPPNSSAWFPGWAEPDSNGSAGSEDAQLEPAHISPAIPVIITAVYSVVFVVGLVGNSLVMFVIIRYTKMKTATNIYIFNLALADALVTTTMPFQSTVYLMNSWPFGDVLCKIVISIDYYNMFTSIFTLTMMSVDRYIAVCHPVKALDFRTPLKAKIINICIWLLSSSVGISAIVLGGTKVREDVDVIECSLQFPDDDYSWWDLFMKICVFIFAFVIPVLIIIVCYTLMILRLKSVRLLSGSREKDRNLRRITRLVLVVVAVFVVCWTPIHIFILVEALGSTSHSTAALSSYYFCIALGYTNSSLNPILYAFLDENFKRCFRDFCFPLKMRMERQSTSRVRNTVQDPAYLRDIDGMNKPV

[4] = target: T2, Neuropeptide Y receptor type 1 (Homo sapiens, UniProt P25929)
T2 sequence (P25929 whole entry): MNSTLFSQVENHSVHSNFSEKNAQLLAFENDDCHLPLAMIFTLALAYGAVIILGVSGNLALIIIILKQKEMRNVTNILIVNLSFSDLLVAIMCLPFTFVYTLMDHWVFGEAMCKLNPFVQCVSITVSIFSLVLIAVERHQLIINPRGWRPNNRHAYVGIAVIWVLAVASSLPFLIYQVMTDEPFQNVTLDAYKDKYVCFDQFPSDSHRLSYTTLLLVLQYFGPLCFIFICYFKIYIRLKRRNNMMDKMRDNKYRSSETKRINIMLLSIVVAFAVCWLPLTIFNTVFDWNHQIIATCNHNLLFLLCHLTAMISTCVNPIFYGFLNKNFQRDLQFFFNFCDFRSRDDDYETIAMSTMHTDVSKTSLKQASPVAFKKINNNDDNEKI

[5] = target: 5-hydroxytryptamine receptor 2A (Homo sapiens, UniProt P28223); assay type: functional, cell-based
Sequence of 5-hydroxytryptamine receptor 2A (P28223 whole entry): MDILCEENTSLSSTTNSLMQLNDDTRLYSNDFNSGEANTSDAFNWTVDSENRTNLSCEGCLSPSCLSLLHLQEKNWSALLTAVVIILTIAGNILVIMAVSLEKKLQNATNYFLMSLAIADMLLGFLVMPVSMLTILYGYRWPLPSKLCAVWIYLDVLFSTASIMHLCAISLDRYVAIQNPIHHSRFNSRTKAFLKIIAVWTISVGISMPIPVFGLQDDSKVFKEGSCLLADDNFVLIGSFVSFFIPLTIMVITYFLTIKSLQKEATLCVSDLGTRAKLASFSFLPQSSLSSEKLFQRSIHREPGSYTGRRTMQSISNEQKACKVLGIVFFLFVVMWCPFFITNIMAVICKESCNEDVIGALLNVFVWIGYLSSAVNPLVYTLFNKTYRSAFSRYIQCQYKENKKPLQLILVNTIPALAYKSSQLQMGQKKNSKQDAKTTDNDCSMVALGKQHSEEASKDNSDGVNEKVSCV

[6] = target: T3, Glucocorticoid receptor (Homo sapiens, UniProt P04150)
T3 sequence (P04150 whole entry): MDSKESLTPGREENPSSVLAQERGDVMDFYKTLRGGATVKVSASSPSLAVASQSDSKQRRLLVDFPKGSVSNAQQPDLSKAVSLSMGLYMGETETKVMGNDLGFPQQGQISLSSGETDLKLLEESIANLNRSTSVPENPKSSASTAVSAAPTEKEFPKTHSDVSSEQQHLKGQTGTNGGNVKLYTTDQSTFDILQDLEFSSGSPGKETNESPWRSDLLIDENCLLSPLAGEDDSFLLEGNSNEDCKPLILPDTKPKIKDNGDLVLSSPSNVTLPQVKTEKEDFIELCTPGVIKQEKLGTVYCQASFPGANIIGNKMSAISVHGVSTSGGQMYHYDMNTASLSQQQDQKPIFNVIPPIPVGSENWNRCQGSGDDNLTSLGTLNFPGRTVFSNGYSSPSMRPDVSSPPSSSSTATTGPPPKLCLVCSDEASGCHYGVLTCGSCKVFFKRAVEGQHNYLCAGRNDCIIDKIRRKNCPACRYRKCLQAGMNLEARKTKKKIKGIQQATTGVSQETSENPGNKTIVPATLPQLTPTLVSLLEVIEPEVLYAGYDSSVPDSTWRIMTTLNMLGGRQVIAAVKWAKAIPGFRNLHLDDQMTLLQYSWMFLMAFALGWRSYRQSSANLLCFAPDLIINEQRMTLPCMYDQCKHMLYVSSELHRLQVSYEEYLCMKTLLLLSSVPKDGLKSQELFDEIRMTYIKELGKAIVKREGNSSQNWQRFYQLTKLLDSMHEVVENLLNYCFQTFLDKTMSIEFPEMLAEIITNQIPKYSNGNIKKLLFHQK

[7] = target: T1, Alpha-1A adrenergic receptor; assay type: functional, cell-based
[8] = target: T4, Amine oxidase [flavin-containing] A (Homo sapiens, UniProt P21397); assay type: functional
T4 sequence (P21397 whole entry): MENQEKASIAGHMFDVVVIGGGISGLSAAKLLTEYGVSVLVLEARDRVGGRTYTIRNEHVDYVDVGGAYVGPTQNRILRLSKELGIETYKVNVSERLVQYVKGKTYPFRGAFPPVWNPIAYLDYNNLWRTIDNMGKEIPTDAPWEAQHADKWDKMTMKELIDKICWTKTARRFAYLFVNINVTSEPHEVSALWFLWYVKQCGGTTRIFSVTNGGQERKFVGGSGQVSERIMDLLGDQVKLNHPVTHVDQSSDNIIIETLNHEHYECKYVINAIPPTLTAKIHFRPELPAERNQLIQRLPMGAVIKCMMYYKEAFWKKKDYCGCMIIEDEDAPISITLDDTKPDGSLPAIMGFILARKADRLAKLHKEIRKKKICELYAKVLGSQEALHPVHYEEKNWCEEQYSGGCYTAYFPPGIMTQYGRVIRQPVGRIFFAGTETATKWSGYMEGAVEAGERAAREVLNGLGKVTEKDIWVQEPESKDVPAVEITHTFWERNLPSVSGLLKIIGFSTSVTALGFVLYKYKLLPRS

[9] = target: Histamine H3 receptor (Homo sapiens, UniProt Q9Y5N1)
Sequence of Histamine H3 receptor (Q9Y5N1 whole entry): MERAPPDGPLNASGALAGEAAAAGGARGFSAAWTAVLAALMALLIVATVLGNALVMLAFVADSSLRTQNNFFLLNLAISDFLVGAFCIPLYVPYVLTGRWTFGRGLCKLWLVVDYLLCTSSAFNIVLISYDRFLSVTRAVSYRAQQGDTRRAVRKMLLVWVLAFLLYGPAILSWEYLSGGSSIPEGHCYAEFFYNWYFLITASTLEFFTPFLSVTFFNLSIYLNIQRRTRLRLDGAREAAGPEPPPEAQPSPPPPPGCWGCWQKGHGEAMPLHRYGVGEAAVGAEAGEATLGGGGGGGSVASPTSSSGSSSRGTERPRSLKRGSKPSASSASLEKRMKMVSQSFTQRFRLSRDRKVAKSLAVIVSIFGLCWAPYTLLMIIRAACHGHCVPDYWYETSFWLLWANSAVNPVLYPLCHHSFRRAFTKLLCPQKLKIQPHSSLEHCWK

[10] = target: cGMP-inhibited 3',5'-cyclic phosphodiesterase 3A (Homo sapiens, UniProt Q14432); assay type: functional
Sequence of cGMP-inhibited 3',5'-cyclic phosphodiesterase 3A (Q14432 whole entry): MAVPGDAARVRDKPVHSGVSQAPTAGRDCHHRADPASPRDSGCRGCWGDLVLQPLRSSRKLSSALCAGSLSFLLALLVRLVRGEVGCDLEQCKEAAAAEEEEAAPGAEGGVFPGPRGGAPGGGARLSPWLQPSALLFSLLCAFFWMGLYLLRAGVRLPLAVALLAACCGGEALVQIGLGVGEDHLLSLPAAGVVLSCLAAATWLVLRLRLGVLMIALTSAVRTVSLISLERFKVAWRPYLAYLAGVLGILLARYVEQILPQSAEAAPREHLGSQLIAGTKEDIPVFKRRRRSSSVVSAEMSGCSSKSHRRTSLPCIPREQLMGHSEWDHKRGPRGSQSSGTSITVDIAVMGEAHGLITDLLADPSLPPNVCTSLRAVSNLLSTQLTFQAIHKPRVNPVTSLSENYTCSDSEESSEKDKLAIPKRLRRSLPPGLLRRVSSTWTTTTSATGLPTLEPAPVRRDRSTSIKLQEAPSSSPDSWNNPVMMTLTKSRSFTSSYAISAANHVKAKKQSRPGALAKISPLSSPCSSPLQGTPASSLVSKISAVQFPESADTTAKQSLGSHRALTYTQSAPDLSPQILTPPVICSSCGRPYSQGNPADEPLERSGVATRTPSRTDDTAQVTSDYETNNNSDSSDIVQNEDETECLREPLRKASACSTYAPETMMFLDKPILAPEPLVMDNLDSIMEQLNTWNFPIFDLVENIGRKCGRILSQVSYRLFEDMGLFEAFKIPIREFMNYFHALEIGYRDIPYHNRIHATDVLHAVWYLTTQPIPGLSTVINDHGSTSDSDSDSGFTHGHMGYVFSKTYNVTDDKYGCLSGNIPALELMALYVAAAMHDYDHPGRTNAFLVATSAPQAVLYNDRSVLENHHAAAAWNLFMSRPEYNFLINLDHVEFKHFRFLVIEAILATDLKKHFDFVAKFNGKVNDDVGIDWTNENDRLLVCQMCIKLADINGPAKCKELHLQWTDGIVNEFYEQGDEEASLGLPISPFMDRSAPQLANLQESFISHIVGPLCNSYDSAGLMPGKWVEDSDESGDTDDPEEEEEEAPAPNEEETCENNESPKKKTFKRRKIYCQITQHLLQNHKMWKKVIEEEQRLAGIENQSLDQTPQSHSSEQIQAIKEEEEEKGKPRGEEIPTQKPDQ

[11] = target: T5, Adenosine receptor A3 (Homo sapiens, UniProt P0DMS8)
T5 sequence (P0DMS8 whole entry): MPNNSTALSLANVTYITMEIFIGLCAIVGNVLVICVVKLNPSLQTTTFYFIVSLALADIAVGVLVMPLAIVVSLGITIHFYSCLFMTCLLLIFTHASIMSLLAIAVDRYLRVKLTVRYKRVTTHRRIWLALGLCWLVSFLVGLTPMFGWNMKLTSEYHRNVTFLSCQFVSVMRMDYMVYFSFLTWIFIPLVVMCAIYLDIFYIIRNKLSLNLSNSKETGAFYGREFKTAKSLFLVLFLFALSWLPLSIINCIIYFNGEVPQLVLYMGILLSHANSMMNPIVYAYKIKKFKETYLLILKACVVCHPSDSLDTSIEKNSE
Also: assay procedure not described here.

Row | AC50 [1] | AC50 [2] | AC50 [3] | AC50 [4] | AC50 [5] | AC50 [6] | SMILES | AC50 [7] | AC50 [8] | AC50 [9] | AC50 [10] | AC50 [11]
1 | > 10 µM | > 30 µM |  |  | > 30 µM |  | CNC(=O)c1ccccc1Sc1ccc2c(/C=C/c3ccccn3)n[nH]c2c1 [AXITINIB] |  |  |  |  | 
2 | 5.78 µM |  | > 10 µM | > 30 µM |  | > 30 µM | CC1=C(C(=O)O)N2C(=O)[C@@H](NC(=O)[C@H](N)c3ccccc3)[C@H]2SC1 [CEPHALEXIN ANHYDROUS] |  |  |  |  | 
3 | > 10 µM | > 30 µM | > 10 µM | > 30 µM | > 30 µM |  | CN1C(C(=O)Nc2ccccn2)=C(O)c2sc(Cl)cc2S1(=O)=O [LORNOXICAM] |  |  |  |  | 
4 | 3.9 µM |  | > 10 µM | > 30 µM |  | > 30 µM | Clc1ccc2nsnc2c1NC1=NCCN1 [TIZANIDINE] |  |  |  |  | 
5 | > 10 µM |  | > 10 µM | > 10 µM |  | > 30 µM | Cc1ccc(-c2cc(C(F)(F)F)nn2-c2ccc(S(N)(=O)=O)cc2)cc1 [CELECOXIB] |  |  |  |  | 
6 | 1.78 µM |  | 12.9 µM | > 30 µM |  | > 30 µM | CCCN1C[C@H](CSC)C[C@@H]2c3cccc4[nH]cc(c34)C[C@H]21 [PERGOLIDE] |  |  |  |  | 
7 | 13 µM | > 30 µM | > 30 µM | > 30 µM | > 30 µM | > 30 µM | COc1ccccc1OCC(O)CN1CCN(CC(=O)Nc2c(C)cccc2C)CC1 (centres undefined) [RANOLAZINE] |  |  |  |  | 
8 | 7.01 µM |  | > 10 µM | > 30 µM |  | > 30 µM | CN(C)CCC(c1ccc(Cl)cc1)c1ccccn1 (centres undefined) [CHLORPHENIRAMINE] |  |  |  |  | 
9 | > 10 µM |  | > 10 µM | > 10 µM |  | > 10 µM | CN(C)/N=N/c1[nH]cnc1C(N)=O [DACARBAZINE] |  |  |  |  | 
10 | > 10 µM |  | > 30 µM | > 30 µM |  |  | CCC(C)n1ncn(-c2ccc(N3CCN(c4ccc(OCC5COC(Cn6cncn6)(c6ccc(Cl)cc6Cl)O5)cc4)CC3)cc2)c1=O (centres undefined) [ITRACONAZOLE] |  |  |  |  | 
11 | > 10 µM | > 10 µM | > 10 µM | > 10 µM | > 30 µM |  | Nc1ccn([C@H]2CC[C@@H](CO)O2)c(=O)n1 [ZALCITABINE] |  |  |  |  | 
12 | > 10 µM | > 10 µM | > 10 µM | > 10 µM | > 10 µM | > 10 µM | NS(=O)(=O)Cc1noc2ccccc12 [ZONISAMIDE] |  |  |  |  | 
13 | > 10 µM |  | > 10 µM | > 30 µM |  | > 30 µM | CCOC(=O)[C@H](CCc1ccccc1)N[C@@H](C)C(=O)N1[C@H](C(=O)O)C[C@@H]2CCC[C@@H]21 |  |  |  |  | 
14 | > 10 µM |  | > 10 µM | > 10 µM |  | 1.4 µM | Clc1ccc(C(c2ccccc2Cl)C(Cl)Cl)cc1 (centres undefined) [MITOTANE] |  |  |  |  | 
15 | > 10 µM | > 30 µM |  | > 30 µM | > 30 µM | 2.71 µM | O=C1Nc2ccc(Cl)cc2[C@@](C#CC2CC2)(C(F)(F)F)O1 [EFAVIRENZ] |  |  |  |  | 
16 | > 10 µM |  | > 10 µM | > 30 µM |  |  | C[C@]12CCC(=O)C=C1CC[C@@H]1[C@@H]2[C@@H](O)C[C@@]2(C)[C@H]1CC[C@]2(O)C(=O)CO [HYDROCORTISONE] |  |  |  |  | 

Row | SMILES | AC50 [1] | AC50 [2] | AC50 [3] | AC50 [4] | AC50 [5] | AC50 [6] | AC50 [7] | AC50 [8] | AC50 [9] | AC50 [10] | AC50 [11]
17 | Cn1nnc2c(C(N)=O)ncn2c1=O [TEMOZOLOMIDE] | > 10 µM | > 30 µM | > 10 µM | > 30 µM | > 30 µM |  |  |  |  |  | 
18 | CN1C(=O)CCS(=O)(=O)C1c1ccc(Cl)cc1 (centres undefined) [CHLORMEZANONE] | > 30 µM | > 10 µM | > 10 µM | > 10 µM | > 10 µM | > 10 µM |  |  |  |  | 
19 | Cc1c(C(=O)NN2CCCCC2)nn(-c2ccc(Cl)cc2Cl)c1-c1ccc(Cl)cc1 [RIMONABANT] | > 10 µM | > 30 µM |  | > 30 µM | > 30 µM | > 30 µM |  |  |  |  | 
20 | c1ccc([C@H]2CN3CCSC3=N2)cc1 [LEVAMISOLE] | > 10 µM |  | > 30 µM |  |  |  |  |  |  |  | 
21 | O=P1(NCCCl)OCCCN1CCCl (centres undefined) [IFOSFAMIDE] | > 30 µM |  | > 30 µM | > 30 µM |  | > 30 µM |  |  |  |  | 
22 | CCCSc1ccc2nc(NC(=O)OC)[nH]c2c1 [ALBENDAZOLE] | > 10 µM |  | > 10 µM | > 10 µM |  | > 10 µM |  |  |  |  | 
23 | C[C@@H](O)[C@H]1C(=O)N2C(C(=O)O)=C(S[C@@H]3CN[C@H](C(=O)N(C)C)C3)[C@H](C)[C@H]12 [MEROPENEM] | > 10 µM |  | > 10 µM | > 10 µM |  | > 10 µM |  |  |  |  | 
24 | CC1(C)NC(=O)N(c2ccc([N+](=O)[O-])c(C(F)(F)F)c2)C1=O [NILUTAMIDE] | > 30 µM | > 30 µM | > 30 µM | > 30 µM | > 30 µM |  | > 3 µM | > 30 µM | > 30 µM | > 30 µM | 
25 | CC[C@H]1[C@@H](O)[C@@H]2[C@H](CC[C@]3(C)[C@@H]([C@H](C)CCC(=O)O)CC[C@@H]23)[C@@]2(C)CC[C@@H](O)C[C@@H]12 [OBETICHOLIC ACID] |  | > 30 µM | > 30 µM | > 30 µM | > 30 µM | > 30 µM | > 30 µM | > 30 µM | > 30 µM | > 30 µM | > 30 µM
26 | CC[C@H]1OC(=O)[C@H](C)[C@@H](O[C@H]2C[C@@](C)(OC)[C@@H](O)[C@H](C)O2)[C@H](C)[C@@H](O[C@@H]2O[C@H](C)C[C@H](N(C)C)[C@H]2O)[C@](C)(O)C[C@@H](C)CN(C)[C@H](C)[C@@H](O)[C@]1(C)O [AZITHROMYCIN] | > 10 µM |  | > 10 µM | > 30 µM |  |  | > 30 µM | > 30 µM | > 30 µM | > 30 µM | 

From ChEMBL document CHEMBL5291721, “A preclinical secondary pharmacology resource illuminates target-adverse drug reaction associations of marketed drugs” (Nat Commun, 2023)
